Test results: article PMC3444433, “The Drosophila nicotinic acetylcholine receptor subunits Dα5 and Dα7 form functional homomeric and heteromeric ion channels” (BMC Neuroscience, 2012)

How the values were obtained:
Experiment in all cases: two-electrode voltage clamp, Xenopus oocytes
Format in all cases: cell-based
Conditions in all cases: read-out: EC 50(μM or nM)*
[1] = biological target: T1, homomeric Dα5 nAChR (Drosophila melanogaster, UniProt Q8T7V5)
T1 construct: gene nAChRalpha5; full-length, 807 residues, unusually large N-terminal domain; pGEMHE cRNA in Xenopus oocytes with chaperone C. elegans RIC-3; homopentamer
T1 sequence (Q8T7V5 1-807): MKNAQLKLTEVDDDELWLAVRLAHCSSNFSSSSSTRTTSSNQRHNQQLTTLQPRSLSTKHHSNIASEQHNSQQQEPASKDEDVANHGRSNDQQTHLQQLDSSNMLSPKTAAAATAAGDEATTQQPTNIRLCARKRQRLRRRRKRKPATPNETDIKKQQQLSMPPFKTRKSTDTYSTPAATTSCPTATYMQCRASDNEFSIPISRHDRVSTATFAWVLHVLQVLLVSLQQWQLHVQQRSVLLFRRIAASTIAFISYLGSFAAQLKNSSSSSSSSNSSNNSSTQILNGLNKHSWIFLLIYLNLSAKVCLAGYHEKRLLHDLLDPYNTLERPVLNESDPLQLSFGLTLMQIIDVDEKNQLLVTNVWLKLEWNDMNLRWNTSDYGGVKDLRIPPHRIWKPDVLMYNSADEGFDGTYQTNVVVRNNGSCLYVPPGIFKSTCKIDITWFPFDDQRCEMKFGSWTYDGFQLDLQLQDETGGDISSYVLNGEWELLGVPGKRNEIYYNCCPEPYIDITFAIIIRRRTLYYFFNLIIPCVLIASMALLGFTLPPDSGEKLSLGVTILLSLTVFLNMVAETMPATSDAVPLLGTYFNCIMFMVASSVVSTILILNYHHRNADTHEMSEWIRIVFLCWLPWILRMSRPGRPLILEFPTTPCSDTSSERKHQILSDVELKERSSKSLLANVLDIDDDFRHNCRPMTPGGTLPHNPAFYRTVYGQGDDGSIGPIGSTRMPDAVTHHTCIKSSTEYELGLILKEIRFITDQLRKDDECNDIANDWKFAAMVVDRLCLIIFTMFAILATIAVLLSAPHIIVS
Description: two-electrode voltage clamp, Xenopus oocytes on homomeric Dα5 nAChR

[2] = biological target: T2, Dα5 + Dα6 nAChR (Drosophila melanogaster, UniProt Q8T7V5+Q9VL79)
T2 construct: gene nAChRalpha5; intact subunits co-injected as cRNA in Xenopus oocytes with C. elegans RIC-3; pairwise heteromer not proven (may be homomeric Dα5); stoichiometry unknown
T2 sequence (Q8T7V5 1-807): T1 sequence (Q8T7V5 1-807)
T2 sequence (Q9VL79 28-494): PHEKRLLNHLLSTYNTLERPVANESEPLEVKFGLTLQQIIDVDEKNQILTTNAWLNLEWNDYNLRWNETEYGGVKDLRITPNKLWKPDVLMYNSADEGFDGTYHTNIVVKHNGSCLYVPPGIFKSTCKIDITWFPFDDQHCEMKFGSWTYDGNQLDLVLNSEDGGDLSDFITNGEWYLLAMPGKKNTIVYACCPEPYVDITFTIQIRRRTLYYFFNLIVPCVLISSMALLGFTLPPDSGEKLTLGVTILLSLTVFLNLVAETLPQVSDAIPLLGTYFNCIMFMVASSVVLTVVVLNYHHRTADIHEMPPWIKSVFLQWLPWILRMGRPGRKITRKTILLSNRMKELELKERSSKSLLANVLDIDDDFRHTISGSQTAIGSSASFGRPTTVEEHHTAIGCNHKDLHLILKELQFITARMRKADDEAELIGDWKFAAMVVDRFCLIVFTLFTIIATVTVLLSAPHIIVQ
Description: two-electrode voltage clamp, Xenopus oocytes on Dα5 + Dα6 nAChR

[3] = biological target: T3, Dα5 + Dα7 nAChR (Drosophila melanogaster, UniProt Q8T7V5+Q9VWI9)
T3 construct: gene nAChRalpha5; intact subunits co-injected as cRNA in Xenopus oocytes with C. elegans RIC-3; pairwise heteromer not proven (may be homomers); stoichiometry unknown
T3 sequence (Q8T7V5 1-807): T1 sequence (Q8T7V5 1-807)
T3 sequence (Q9VWI9 59-560): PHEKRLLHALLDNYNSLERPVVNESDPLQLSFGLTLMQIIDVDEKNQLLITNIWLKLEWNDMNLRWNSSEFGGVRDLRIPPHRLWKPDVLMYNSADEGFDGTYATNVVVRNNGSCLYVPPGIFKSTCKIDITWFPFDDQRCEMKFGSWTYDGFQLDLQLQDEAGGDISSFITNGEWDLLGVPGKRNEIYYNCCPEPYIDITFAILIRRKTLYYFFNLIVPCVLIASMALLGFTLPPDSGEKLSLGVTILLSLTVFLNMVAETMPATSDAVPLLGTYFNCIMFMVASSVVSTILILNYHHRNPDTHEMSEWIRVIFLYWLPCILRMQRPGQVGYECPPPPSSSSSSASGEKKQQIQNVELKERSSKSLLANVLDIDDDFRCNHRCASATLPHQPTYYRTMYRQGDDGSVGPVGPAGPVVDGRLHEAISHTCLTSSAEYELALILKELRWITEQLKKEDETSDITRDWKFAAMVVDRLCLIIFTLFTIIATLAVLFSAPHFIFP
Description: two-electrode voltage clamp, Xenopus oocytes on Dα5 + Dα7 nAChR

[4] = biological target: T4, homomeric Dα7 nAChR (Drosophila melanogaster, UniProt Q9VWI9)
T4 construct: gene nAChRalpha7; intact subunit; pGEMHE cRNA in Xenopus oocytes with chaperone C. elegans RIC-3; homopentamer
T4 sequence (Q9VWI9 59-560): T3 sequence (Q9VWI9 59-560)
Description: two-electrode voltage clamp, Xenopus oocytes on homomeric Dα7 nAChR

- EC50 [1]: 8.8 ± 2.5 µM
- EC50 [2]: 8.6 ± 2.4 µM
- EC50 [3]: 1.6 ± 0.3 µM
- EC50 [4]: 6.7 ± 1.7 µM
Compound: CC(=O)OCC[N+](C)(C)C [acetylcholine]
